Reference: US10405547B2, “Substituted cyclic amides as herbicides” (FMC Corporation, priority 2015, dated 2019)

Key:
Format in all cases: in vivo
kochia (Kochia scoparia) [1] = experiment: Test A postemergence, kochia; details: visual injury, 0 to 100 scale (0 no effect, 100 complete control), approximately 10 days
Method in brief: (§1)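 Greenhouse assay; ~10 d; visual injury vs untreated control, scored 0 = no effect through 100 = complete control. Post-emergent seedlings at one–two leaves; pre-emergent seeds in loam/sand given a directed soil spray.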

rice (Oryza sativa) = experiment: Test B flooded paddy test, rice; details: 250 g ai/ha, applied to paddy water, visual rating after 13 to 15 days, scale 0 (no effect) to 100 (complete control)
Method in brief: (§2)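 Under a constant 3 cm flood, test compounds went directly into the paddy water. Following 13 to 15 days of greenhouse growth, treated species and controls were compared by eye.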

[2] = system: pigweed (Amaranthus retroflexus); experiment: Test A preemergence, pigweed; details: 0 to 100 scale (0 no effect, 100 complete control)
Method in brief: as §1

[3] = system: barnyardgrass (Echinochloa crus-galli); experiment: Test A preemergence, barnyardgrass; details: 0 to 100 scale (0 no effect, 100 complete control)
Method in brief: as §1

[4] = system: galium (catchweed bedstraw, Galium aparine); experiment: Test A postemergence, galium; details: visual injury, 0 to 100 scale (0 no effect, 100 complete control), approximately 10 days
Method in brief: as §1

[5] = system: foxtail, giant (Setaria faberii); experiment: Test A preemergence, giant foxtail; details: 0 to 100 scale (0 no effect, 100 complete control)
Method in brief: as §1

[6] = system: ryegrass, Italian (Lolium multiflorum); experiment: Test A postemergence, Italian ryegrass; details: visual injury, 0 to 100 scale (0 no effect, 100 complete control), approximately 10 days
Method in brief: as §1

[7] = system: ragweed (common ragweed, Ambrosia elatior); experiment: Test A postemergence, ragweed; details: visual injury, 0 to 100 scale (0 no effect, 100 complete control), approximately 10 days
Method in brief: as §1

[8] = system: wheat (Triticum aestivum); experiment: Test A postemergence, wheat; details: visual injury, 0 to 100 scale (0 no effect, 100 complete control), approximately 10 days
Method in brief: as §1

[9] = system: sedge, umbrella (small-flower umbrella sedge, Cyperus difformis); experiment: Test B flooded paddy test, umbrella sedge; details: 250 g ai/ha, applied to paddy water, visual rating after 13 to 15 days, scale 0 (no effect) to 100 (complete control)
Method in brief: as §2

[10] = system: ducksalad (Heteranthera limosa); experiment: Test B flooded paddy test, ducksalad; details: 250 g ai/ha, applied to paddy water, visual rating after 13 to 15 days, scale 0 (no effect) to 100 (complete control)
Method in brief: as §2

corn (Zea mays) = experiment: Test A postemergence, corn; details: visual injury, 0 to 100 scale (0 no effect, 100 complete control), approximately 10 days
Method in brief: as §1

[11] = system: ragweed (common ragweed, Ambrosia elatior); experiment: Test A preemergence, ragweed; details: 0 to 100 scale (0 no effect, 100 complete control)
Method in brief: as §1

[12] = system: foxtail, giant (Setaria faberii); experiment: Test A postemergence, giant foxtail; details: visual injury, 0 to 100 scale (0 no effect, 100 complete control), approximately 10 days
Method in brief: as §1

[13] = system: ryegrass, Italian (Lolium multiflorum); experiment: Test A preemergence, Italian ryegrass; details: 0 to 100 scale (0 no effect, 100 complete control)
Method in brief: as §1

kochia (Kochia scoparia) [14] = experiment: Test A preemergence, kochia; details: 0 to 100 scale (0 no effect, 100 complete control)
Method in brief: as §1

[15] = system: barnyardgrass (Echinochloa crus-galli); experiment: Test B flooded paddy test, barnyardgrass; details: 250 g ai/ha, applied to paddy water, visual rating after 13 to 15 days, scale 0 (no effect) to 100 (complete control)
Method in brief: as §2

[16] = system: pigweed (Amaranthus retroflexus); experiment: Test A postemergence, pigweed; details: visual injury, 0 to 100 scale (0 no effect, 100 complete control), approximately 10 days
Method in brief: as §1

[17] = system: blackgrass (Alopecurus myosuroides); experiment: Test A postemergence, blackgrass; details: visual injury, 0 to 100 scale (0 no effect, 100 complete control), approximately 10 days
Method in brief: as §1

[18] = system: barnyardgrass (Echinochloa crus-galli); experiment: Test A postemergence, barnyardgrass; details: visual injury, 0 to 100 scale (0 no effect, 100 complete control), approximately 10 days
Method in brief: as §1

SMILES | Plant response rating, Kochia (kochia (Kochia scoparia) [1]; 125 g ai/ha) | Plant response rating, Kochia (kochia (Kochia scoparia) [1]; 500 g ai/ha) | Plant response rating, Rice (Flood) (rice (Oryza sativa)) | Plant response rating, Pigweed ([2]; 125 g ai/ha) | Plant response rating, Pigweed ([2]; 500 g ai/ha) | Plant response rating, Barnyardgrass ([3]; 125 g ai/ha) | Plant response rating, Barnyardgrass ([3]; 500 g ai/ha) | Plant response rating, Galium ([4]; 125 g ai/ha) | Plant response rating, Galium ([4]; 500 g ai/ha) | Plant response rating, Foxtail, Giant ([5]; 125 g ai/ha) | Plant response rating, Foxtail, Giant ([5]; 500 g ai/ha) | Plant response rating, Ryegrass, Italian ([6]; 125 g ai/ha) | Plant response rating, Ryegrass, Italian ([6]; 500 g ai/ha) | Plant response rating, Ragweed ([7]; 125 g ai/ha) | Plant response rating, Ragweed ([7]; 500 g ai/ha) | Plant response rating, Wheat ([8]; 125 g ai/ha) | Plant response rating, Wheat ([8]; 500 g ai/ha) | Plant response rating, Sedge, Umbrella (Flood) [9] | Plant response rating, Ducksalad (Flood) [10] | Plant response rating, Corn (corn (Zea mays); 125 g ai/ha) | also measured
CN1CC(c2cccc(Oc3ncc(F)cn3)c2)C(C(=O)Nc2ccccc2F)C1=O (single isomer, unassigned) [Compound 36] | 0 | 50 | 30 | 0 | 40 | 90 | 90 | 40 | 70 | 90 | 90 | 0 | 50 | 0 | 40 | 0 | 60 | 0 | 0 | 40 | Plant response rating, Corn (corn (Zea mays); 500 g ai/ha): 90; Plant response rating, Ragweed ([11]; 125 g ai/ha): 0; Plant response rating, Ragweed ([11]; 500 g ai/ha): 50; Plant response rating, Foxtail, Giant ([12]; 125 g ai/ha): 80; Plant response rating, Foxtail, Giant ([12]; 500 g ai/ha): 80; Plant response rating, Ryegrass, Italian ([13]; 125 g ai/ha): 0; Plant response rating, Ryegrass, Italian ([13]; 500 g ai/ha): 90; Plant response rating, Kochia (kochia (Kochia scoparia) [14]; 125 g ai/ha): 0; Plant response rating, Kochia (kochia (Kochia scoparia) [14]; 500 g ai/ha): 40; Plant response rating, Barnyardgrass (Flood) [15]: 60; Plant response rating, Pigweed ([16]; 125 g ai/ha): 30; Plant response rating, Pigweed ([16]; 500 g ai/ha): 50; Plant response rating, Blackgrass ([17]; 125 g ai/ha): 20; Plant response rating, Blackgrass ([17]; 500 g ai/ha): 50; Plant response rating, Barnyardgrass ([18]; 125 g ai/ha): 90; Plant response rating, Barnyardgrass ([18]; 500 g ai/ha): 90
CN1CC(c2cccc(Oc3ccc(F)cc3)c2)C(C(=O)Nc2ccccc2F)C1=O (single isomer, unassigned) [Compound 45] | 40 | 60 | 15 | 40 | 70 | 80 | 80 | 60 | 60 | 90 | 90 | 0 | 30 | 0 | 0 | 0 | 20 | 0 | 70 | 0 | Plant response rating, Corn (corn (Zea mays); 500 g ai/ha): 50; Plant response rating, Ragweed ([11]; 125 g ai/ha): 0; Plant response rating, Ragweed ([11]; 500 g ai/ha): 30; Plant response rating, Foxtail, Giant ([12]; 125 g ai/ha): 80; Plant response rating, Foxtail, Giant ([12]; 500 g ai/ha): 80; Plant response rating, Ryegrass, Italian ([13]; 125 g ai/ha): 30; Plant response rating, Ryegrass, Italian ([13]; 500 g ai/ha): 80; Plant response rating, Kochia (kochia (Kochia scoparia) [14]; 125 g ai/ha): 0; Plant response rating, Kochia (kochia (Kochia scoparia) [14]; 500 g ai/ha): 20; Plant response rating, Barnyardgrass (Flood) [15]: 40; Plant response rating, Pigweed ([16]; 125 g ai/ha): 30; Plant response rating, Pigweed ([16]; 500 g ai/ha): 60; Plant response rating, Blackgrass ([17]; 125 g ai/ha): 30; Plant response rating, Blackgrass ([17]; 500 g ai/ha): 30; Plant response rating, Barnyardgrass ([18]; 125 g ai/ha): 90; Plant response rating, Barnyardgrass ([18]; 500 g ai/ha): 90
C[Si](C)(C)C#Cc1cccc(C2CNC(=O)C2C(=O)Nc2cccc(F)c2F)c1 (stereo not drawn) [Compound 33] | 0 | 40 | 0 | 0 | 0 | 60 | 80 | 0 | 20 | 60 | 80 | 0 | 0 | 0 | 0 | 0 | 0 | 0 | 50 | 0 | Plant response rating, Corn (corn (Zea mays); 500 g ai/ha): 0; Plant response rating, Ragweed ([11]; 125 g ai/ha): 0; Plant response rating, Ragweed ([11]; 500 g ai/ha): 0; Plant response rating, Foxtail, Giant ([12]; 125 g ai/ha): 0; Plant response rating, Foxtail, Giant ([12]; 500 g ai/ha): 50; Plant response rating, Ryegrass, Italian ([13]; 125 g ai/ha): 0; Plant response rating, Ryegrass, Italian ([13]; 500 g ai/ha): 0; Plant response rating, Kochia (kochia (Kochia scoparia) [14]; 125 g ai/ha): 0; Plant response rating, Kochia (kochia (Kochia scoparia) [14]; 500 g ai/ha): 0; Plant response rating, Barnyardgrass (Flood) [15]: 0; Plant response rating, Pigweed ([16]; 125 g ai/ha): 0; Plant response rating, Pigweed ([16]; 500 g ai/ha): 0; Plant response rating, Blackgrass ([17]; 125 g ai/ha): 0; Plant response rating, Blackgrass ([17]; 500 g ai/ha): 0; Plant response rating, Barnyardgrass ([18]; 125 g ai/ha): 0; Plant response rating, Barnyardgrass ([18]; 500 g ai/ha): 50
O=C1NCC(c2cccc(Oc3ncc(F)cn3)c2)C1C(=O)Nc1ccccc1F (single isomer, unassigned) [Compound 39] | 0 | 0 | 0 | 0 | 0 | 70 | 90 | 0 | 30 | 90 | 100 | 0 | 20 | 0 | 30 | 0 | 60 | 0 | 75 | 30 | Plant response rating, Corn (corn (Zea mays); 500 g ai/ha): 70; Plant response rating, Ragweed ([11]; 125 g ai/ha): 0; Plant response rating, Ragweed ([11]; 500 g ai/ha): 50; Plant response rating, Foxtail, Giant ([12]; 125 g ai/ha): 70; Plant response rating, Foxtail, Giant ([12]; 500 g ai/ha): 80; Plant response rating, Ryegrass, Italian ([13]; 125 g ai/ha): 0; Plant response rating, Ryegrass, Italian ([13]; 500 g ai/ha): 60; Plant response rating, Kochia (kochia (Kochia scoparia) [14]; 125 g ai/ha): 30; Plant response rating, Kochia (kochia (Kochia scoparia) [14]; 500 g ai/ha): 50; Plant response rating, Barnyardgrass (Flood) [15]: 0; Plant response rating, Pigweed ([16]; 125 g ai/ha): 0; Plant response rating, Pigweed ([16]; 500 g ai/ha): 20; Plant response rating, Blackgrass ([17]; 125 g ai/ha): 0; Plant response rating, Blackgrass ([17]; 500 g ai/ha): 40; Plant response rating, Barnyardgrass ([18]; 125 g ai/ha): 70; Plant response rating, Barnyardgrass ([18]; 500 g ai/ha): 100
